# What was measured:
# Format in all cases: in vivo, human
# [1] = tested on: apomorphine-induced vomiting and retching; assay: Emesis test (apomorphine challenge), Multiple Ascending Dose study (MAD); conditions: 14 once daily doses, test on day 14, 6 or 24 hrs after last dose
# Protocol: (§1) The described emesis test was performed in two studies. A Single Ascending Dose study (SAD) and a Multiple Ascending Dose study (MAD). In the SAD the emesis test was performed 6 and/or 24 hrs after intake of 2-(3,5-bis-trifluoromethyl-phenyl)-N-methyl-N-(6-morpholin-4-yl-4-o-tolyl-pyridin-3-yl)-isobutyramide. In the MAD the emesis test was performed after 14 once daily doses, 6 or 24 hrs after the last dose. Subjects were dosed for 14 days with 2-(3,5-bis-trifluoromethyl-phenyl)-N-methyl-N-(6-morpholin-4-yl-4-o-tolyl-pyridin-3-yl)-isobutyramide. On day 14 the test was carried out as described in the SAD.
# [2] = tested on: apomorphine-induced vomiting and retching; assay: Emesis test response by NKNA position 41172 genotype (SAD and MAD participants); conditions: plasma concentration >20 ng/ml; responder = ≦3 retches and vomits
# Protocol: FIG. 4: 2×2 Contingency table for 29 position 41172 genotype test results with concentration before emesis test >20 ng/ml 2-(3,5-bis-trifluoromethyl-phenyl)-N-methyl-N-(6-morpholin-4-yl-4-o-tolyl-pyridin-3-yl)-isobutyramide. Effect=yes: number of vomits+retches≦3. Fisher's Exact Test (two-sided): p=0.033. The genotypes of the subjects were classified according to the following categories: 0-2 are allele 2 (nucleotide G) homozygotes (two copies of allele 2, no copies of allele 1); not 0-2 include allelel (nucleotide A) homozygotes 2-0 (two copies of allele 1, no copies of allele 2) and heterozygotes 1-1 (one copy of allele 1 and one copy of allele 2).
# Three genetic markers were selected based on the results from polymorphism discovery in the NKNA gene. Samples were genotyped for these single nucleotide polymorphisms by a kinetic PCR method described by Germer et al., Genome Res. (2000), 10, 258-266 with the modification of using single sample for each reaction instead of pooling samples. This method allows discrimination of single nucleotide polymorphisms without the use of fluorescent probes.
# All participants of the SAD and MAD were tested for the single nucleotide polymorphism at position 41172 of the NKNA gene as defined by position in FIG. 2.
# [3] = tested on: apomorphine-induced vomiting and retching; assay: Emesis test (apomorphine challenge), Single Ascending Dose study (SAD)
# Protocol: as §1, with “dose.” for “dose. Subjects were dosed for 14 days with 2-(3,5-bis-trifluoromethyl-phenyl)-N-methyl-N-(6-morpholin-4-yl-4-o-tolyl-pyridin-3-yl)-isobutyramide. On day 14 the test was carried out as described in the SAD.”
# In the SAD on study day 1 doses of 5, 10, 20, 40, 80, 160, 230 and 400 mg 2-(3,5-bis-trifluoromethyl-phenyl)-N-methyl-N-(6-morpholin-4-yl-4-o-tolyl-pyridin-3-yl)-isobutyramide were administered to the subjects orally as a drinking emulsion. At either 6 or 24 hours after the administration of the drug the subjects received a subcutaneous injection of 50 μg/kg of apomorphine in the lower part of the abdomen. The time of apomorphine administration was recorded. The subjects were brought into an upright sitting position immediately after the injection. They remained in this position until vomiting occurred or for at least 1 hour after the apomorphine injection. Vomiting is defined as regurgitation of approximately 25 ml or more of gastric contents. A retch is defined as a regurgitation producing less or no gastric content.
# Nausea and/or vomiting was expected to occur on average within 10 minutes after the injection. […] The number of vomits and retches were recorded. […]
structure (smiles),measurement,setting,value
"Cc1ccccc1-c1cc(N2CCOCC2)ncc1N(C)C(=O)C(C)(C)c1cc(C(F)(F)F)cc(C(F)(F)F)c1 [2-(3,5-bis-trifluoromethyl-phenyl)-N-methyl-N-(6-morpholin-4-yl-4-o-tolyl-pyridin-3-yl)-isobutyramide]",emesis test result in MAD,[1],consistent with the SAD
same,response to treatment of subjects with G at position 41172 of the NKNA gene versus subjects without it or heterozygous,[2],responding with a higher efficacy
same,average number of retches and vomits at the plateau reached with the blockade,[3]; apomorphine 50 μg/kg s.c. 6 or 24 hrs after oral drug,3
same,plasma concentration at which efficacious levels are reached (minimal concentration to achieve efficacy),"[3]; oral drinking emulsion 5-400 mg, apomorphine 50 μg/kg s.c. 6 or 24 hrs after drug, efficacy = plateau of 3 retches and vomits",20 ng/mL

# — patent US20060228752A1, “Genetic polymorphisms in the preprotachykinin gene” (priority 2002, published 2006)
